Laboratory results reported in the supplement of paper PMC5770543.
± gives the standard deviation.

Tests used:
[1] = target: Toxoplasma gondii RH tachyzoites; test: EC50 growth inhibition (48 h luciferase)
[2] = system: Plasmodium falciparum 3D7; test: EC50 growth inhibition (60 h, SYBR Green); conditions: stage: ring-stage start
[3] = system: Toxoplasma gondii RH tachyzoites; test: % growth inhibition vs DMSO (48 h luciferase); higher = more inhibition; conditions: 10 µM
[4] = system: Plasmodium falciparum 3D7; test: % inhibition of schizont-to-ring transition vs DMSO; higher = more inhibition
Procedure, shortened: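 Schizont-to-ring transition inhibition is the formation of new rings relative to vehicle controls. Tightly synchronised P. falciparum schizonts at about 40–42 hours post-invasion (1% parasitemia, 2.5% hematocrit, AlbuMAX-supplemented RPMI) were treated with compound at 1, 3 or 10 µM, alongside vehicle and positive controls. After glutaraldehyde fixation, Triton permeabilisation and Hoechst 33342 staining, at least 100,000 events were counted by flow cytometry, and values are the mean of three experiments.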

[5] = system: Toxoplasma gondii RH tachyzoites; test: plaque count per well; higher = less inhibition; extreme values may be limits of the assay; conditions: 10 µM; 8-10 days
Description: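 T. gondii RH tachyzoites expressing firefly luciferase were grown in HFF monolayers for 48 h with compound. % growth inhibition at 10 µM and EC50 (2-fold dilutions from 10 µM) were read by luminescence relative to 1% DMSO; EC50 listed as 10 (not determined, <80% inhibition) is left out. Plaque assays: 50 tachyzoites per well with 10 µM compound for 8-10 days, giving plaque count and area by crystal violet/ImageJ. Egress: median time to egress after 1 µM A23187 ionophore following 24 h of 10 µM compound (DMSO ~1.8 min; >10 = no egress within 10 min).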
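Throughout, for % growth inhibition vs DMSO (48 h luciferase): tested in triplicate wells of 96-well plates on confluent HFF monolayers, with 1% DMSO wells as negative control in four replicates.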

SMILES | EC50 growth inhibition [1] [nM] | EC50 growth inhibition [2] [nM] | % growth inhibition [3] [%] | % inhibition of schizont-to-ring transition ([4]; 1 µM) [%] | % inhibition of schizont-to-ring transition ([4]; 3 µM) [%] | % inhibition of schizont-to-ring transition ([4]; 10 µM) [%] | plaque count per well [5]
Cc1ccc(NC(=O)Nc2cccc(Cl)c2)cc1F | 1620 | 6570 | 98.51 ± 0.27 | < 0 | 2.62 | 34.3 | 
Cc1ccnc(NC(c2cccc(OCc3ccccc3)c2)c2ccc3cccnc3c2O)c1 (centres undefined) | 786 | 886 | 98.51 ± 0.34 | 17.5 | 41.1 | 62.9 | 
COc1cc(CNCCc2ccc(Cl)cc2)cc(OC)c1O | 5990 | 1780 | 51.4 ± 14 | 3.17 | 4.67 | 38.3 | 
CCCc1c(C)nc2ccccc2c1O | 803 | 1010 | 87.69 ± 0.86 | 8.03 | 21.8 | 46.6 | 
CCCCCCc1cc(O)c2c3c(c(=O)oc2c1)CCC(C)C3 (centres undefined) | 471 | 3410 | 99.37 ± 0.72 | 18.6 | 34.9 | 52.4 | 
O=C(Nc1ccc(Cl)c(Cl)c1)Nc1ccc(Cl)c(Cl)c1 | 196 | 7140 | 100.5 ± 0.22 | 15.3 | 29.9 | 72.5 | 
O=C(Nc1ccc(N2CCN(Cc3ccccc3)CC2)cc1)c1cccs1 | 183 | 1870 | 91.82 ± 0.81 | 22.9 | 21.2 | 39.3 | 
COc1ccc(C(=O)NC(c2ccccc2Cl)c2cc(Cl)c3cccnc3c2O)cc1 (centres undefined) | 592 |  | 96.55 ± 0.71 | 13.2 | 31.2 | 57.7 | 
CCOc1cc(Cl)c(C(C)NC(=O)c2cccc(OC)c2)cc1OCC (centres undefined) |  | 316 | < 0 | 42.4 | 76.9 | 78.7 | 25
O=C(Nc1ccc(Cl)cc1)N1CCN(c2ccc3nncn3n2)CC1 |  | 6370 | < 0 | 13.1 | 24.8 | 54.3 | 22
CCN(CC)CCNc1ncnc2c1[nH]c1ccc(Br)cc12 |  | 225 | 7.24 ± 12 | 41.8 | 49.9 | 55.8 | 26
Cc1ccc(-c2cc3nc4c(c(O)n3n2)CCCC4)cc1 |  | 4270 | < 0 | 17.7 | 36.1 | 49.3 | 0
CC(C)c1ccc(CNCC(O)c2ccccc2)cc1 (centres undefined) |  | 2650 | 10.5 ± 1.3 | 7.33 | 20.6 | 59.6 | 0
CCCN(CCC)CC(O)COc1ccccc1C(=O)Nc1ccccc1 (centres undefined) |  | 420 | < 0 | 33 | 65.6 | 73.5 | 25
Cc1ccc(Nc2nc(NCCO)c3ccccc3n2)cc1C |  | 194 | < 0 | 54.1 | 66.8 | 69.1 | 0
Cn1c(=O)c2cc(C(=O)NCCCN3CCCCCC3)sc2c2ccccc21 |  | 833 | 5.71 ± 9.9 | 42.6 | 49.5 | 53.2 | 25
OC(CNC1CCCC1)Cn1c2ccccc2c2ccccc21 (centres undefined) |  | 723 | 15.9 ± 6.6 | 22.3 | 40.1 | 63.4 | 0
COc1ccc(C(=O)Nc2nonc2-c2ccc(OC)c(OC)c2)cc1Cl |  | 420 | 1.09 ± 1.9 | 35.7 | 67.3 | 69.4 | 20
CCn1c(SCC(=O)Nc2cc(C(F)(F)F)ccc2Cl)nc2ccccc2c1=O |  | 6480 | < 0 | 22.9 | 30.1 | 43.7 | 26
CCn1c2c(c(=N)c3c1CCC3)CCCC2 |  | 2640 | < 0 | 43.8 | 47.9 | 56.4 | 34
COc1ccc2nc(C)cc(Nc3cccc(O)c3)c2c1 |  | 845 | 19.7 ± 6.3 | 42.3 | 59.4 | 64 | 0

SMILES | EC50 growth inhibition [1] [nM] | EC50 growth inhibition [2] [nM] | % growth inhibition [3] [%] | % inhibition of schizont-to-ring transition ([4]; 1 µM) [%] | % inhibition of schizont-to-ring transition ([4]; 3 µM) [%] | % inhibition of schizont-to-ring transition ([4]; 10 µM) [%] | plaque count per well [5]
Cc1cc(N2CCN(C3CCCC3)CC2)n2c(nc3ccccc32)c1C#N |  | 878 | < 0 | 33.3 | 39.3 | 51.3 | 30
Cc1ccc(CN2CCC(C(=O)Nc3ccc(-c4cc5ccccc5[nH]4)cc3)CC2)o1 |  | 2170 | < 0 | 21.9 | 44.3 | 68.2 | 38
COc1ccc(-c2cc3c(SCC(=O)Nc4cc(C(F)(F)F)ccc4Cl)nccn3n2)cc1 |  | 259 | < 0 | 35.7 | 37.5 | 49.5 | 28
Cc1cc(C=C2SC(=Nc3ccccc3)N(C3CCCC3)C2=O)c(C)n1-c1ccc(Cl)cc1 |  | 5270 | < 0 | 17.8 | 26.2 | 37.9 | 23
COc1ccc(OC)c(C2C3=C(CC(C)(C)CC3=O)N(c3ccc(Cl)c(Cl)c3)C3=C2C(=O)CC(C)(C)C3)c1 |  | 7740 | < 0 | 16.9 | 20.7 | 50.7 | 38
CCOC(=O)C1(Cc2ccccc2)CCN(Cc2cccc(OC)c2O)CC1 |  | 1330 | 1.84 ± 3.2 | 25.8 | 34 | 55.9 | 0
CCOc1ccc(CN2CCN(CC(O)COc3ccc(OCC(O)CN4CCN(Cc5ccc(OCC)cc5)CC4)cc3)CC2)cc1 (centres undefined) |  | 3120 | 4.15 ± 5.8 | < 0 | 14.6 | 59.9 | 0
CCOC(=O)C1CCN(C(=O)CN2C(=O)c3ccccc3C2c2c[nH]c3ccccc23)CC1 (centres undefined) |  | 971 | < 0 | 15.7 | 32.3 | 65.4 | 31
c1ccc(/C2=N/c3ccccc3/N=C(/c3ccccc3)c3ccccc32)cc1 |  | 1580 | < 0 | 57.3 | 79.1 | 80.6 | 0
CCOc1ccc(-n2cc(-c3ccccc3)c3c(SCc4cc(C)ccc4C)ncnc32)cc1 | 3170 |  | 86.5 ± 1.3 | 1.01 | 7.47 | 15.8 | 
CCCCc1c(CCC)c(=N)c2ccccc2n1C |  | 3930 | < 0 | 7.81 | 11.2 | 39.6 | 23
O=C(Nc1ccc(CN2CCOCC2)cc1)c1ccc(-c2ccc(Br)cc2)o1 |  | 1420 | 8.26 ± 14 | 40.3 | 45.9 | 59.2 | 30
Cc1cccc(N2C(=O)C3C(C2=O)C2(c4ccccc4)C(=O)C3(c3ccccc3)C(c3ccc4c(c3)OCO4)=C2c2ccc3c(c2)OCO3)c1 (centres undefined) |  | 1020 | < 0 | < 0 | < 0 | 17.3 | 20
OC(CNC1CCCCC1)Cn1c2ccccc2c2ccccc21 (centres undefined) |  | 985 | < 0 | 48.9 | 69 | 75.3 | 21
CCOc1ccc(N2C(N)=NC(N)=NC2(C)C)cc1 |  | 9760 | < 0 | 5.22 | 7.7 | 16 | 28
O=C(Nc1ccc(Br)cc1)Nc1cccc(Cl)c1 | 3770 |  | 96.13 ± 0.57 | 24.1 | 22.5 | 58.1 | 
CN1c2ccccc2N(C)C1c1ccc2c(c1)OCO2 |  | 9760 | < 0 | < 0 | < 0 | 18.3 | 23
Cc1ccc(S(=O)(=O)c2c(COC(=O)c3cccc(C)c3)c(-c3ccccc3)nn2C)cc1 | 2060 |  | 99.44 ± 0.48 | < 0 | 1.67 | 32.1 | 
CCOc1cc(CNC(C)C(O)c2ccccc2)cc(Cl)c1OCC (centres undefined) |  | 1060 | 15 ± 24 | 2 | 17.2 | 44.2 | 0
COc1ccc(N2CCN(C(CNC(=O)CC(C)(C)C)c3ccc4c(c3)OCO4)CC2)cc1 (centres undefined) |  | 1680 | < 0 | 8.37 | 17.9 | 32.6 | 24
CN1C=C(c2ccc3ccccc3n2)C(c2c[nH]c3ccccc23)c2ccccc21 (centres undefined) |  | 638 | < 0 | 26.7 | 37.7 | 70.6 | 0

SMILES | EC50 growth inhibition [1] [nM] | EC50 growth inhibition [2] [nM] | % growth inhibition [3] [%] | % inhibition of schizont-to-ring transition ([4]; 1 µM) [%] | % inhibition of schizont-to-ring transition ([4]; 3 µM) [%] | % inhibition of schizont-to-ring transition ([4]; 10 µM) [%] | plaque count per well [5]
COc1ccc(N2CCN(C(CNC(=O)C3CCCCC3)c3ccc4c(c3)OCO4)CC2)cc1 (centres undefined) |  | 6240 | < 0 | 41.5 | 44.2 | 49.2 | 23
Cc1c(C)n(Cc2ccc(F)cc2)c2ccc(C(=O)NCc3ccco3)cc12 |  | 1770 | < 0 | 36.3 | 40.3 | 53.4 | 21
CCCc1cc(O)c2c3c(c(=O)oc2c1)CN(C)CC3 |  | 364 | < 0 | 25.2 | 60.2 | 68 | 33
O=C(CSc1ccc2nnc(-c3cccc(F)c3)n2n1)Nc1ccc2c(c1)OCO2 |  | 6570 | 15.9 ± 9.8 | 32 | 49.9 | 72.7 | 25
C[n+]1c2ccccc2nc2ccc(NCCO)cc21 |  | 96.4 | < 0 | 33.2 | 48.3 | 65.4 | 0
CN(C)c1ccc(N2C(N)=NC(N)=NC2(C)C)cc1 |  | 5680 | < 0 | 7.46 | 13.2 | 46.8 | 23
Clc1ccc2c(N3CCCC3)ccnc2c1 |  | 1280 | < 0 | 43.1 | 53.3 | 69.9 | 25
Cc1cc(C)c2nc(N3CCC(C(=O)NCCCN4CCC(N5CCCCC5)CC4)CC3)sc2c1 |  | 1080 | < 0 | 18.8 | 46.7 | 59.8 | 16
CC1CCN(Cc2ccc(NC(=O)c3cc4ccc5cccnc5c4[nH]3)cc2)CC1 |  | 241 | < 0 | 42.3 | 50 | 55.4 | 18
COc1ccc(-c2c(C)nn3c(N)c(C#N)cnc23)cc1OC |  | 3710 | 7.54 ± 13 | 71.1 | 74.9 | 76.1 | 22
COc1ccc(-c2nonc2NC(=O)c2cccc(C)c2)cc1OC |  | 628 | 3.28 ± 4.1 | 32.8 | 59 | 67.1 | 28
COc1ccc(-c2cc3c(nn2)-c2ccccc2C3=O)cc1 |  | 781 | < 0 | 14.8 | 34.7 | 50.6 | 29
O=C(Nc1ccc(-c2nc3ccccc3[nH]2)cc1)c1ccc(Cl)c(Cl)c1 |  | 7300 | 7.15 ± 8.1 | 6.82 | 10.1 | 44.2 | 23
COc1ccc2c(c1OC)C(=O)N1c3ccccc3N=C(c3ccc(C)cc3)CC21 (centres undefined) |  | 6080 | < 0 | 20.9 | 71.5 | 80.7 | 32
O=C(NCC(c1ccsc1)N1CCCCCC1)c1ccc(C(F)(F)F)cc1 (centres undefined) |  | 3350 | 11 ± 19 | 43.8 | 41.5 | 47.4 | 0
COc1cccc(C(=O)NC(c2ccc(C)cc2)c2cc(Cl)c3cccnc3c2O)c1 (centres undefined) |  | 7640 | < 0 | 30.4 | 42.1 | 49.9 | 0
COc1ccccc1CNC(=O)CCn1c(=O)[nH]c2ccsc2c1=O |  | 6070 | < 0 | 11.4 | 30.6 | 49.9 | 22
CCc1ccc(CNCC(O)c2ccccc2)cc1 (centres undefined) |  | 4010 | < 0 | 12.2 | 14.9 | 45.9 | 21
COc1ccc(Br)cc1C1Nc2ccc3ccccc3c2C2=C1C(=O)CC(c1ccccc1)C2 (centres undefined) |  | 387 | 12.1 ± 11 | < 0 | 4.06 | 29.3 | 0
CC1=C(CC(=O)c2cccc([N+](=O)[O-])c2)C(=O)c2ccccc2C1=O |  | 9850 | < 0 | 32.3 | 55.7 | 59.9 | 0
COc1ccccc1CNC(=O)C1c2ccccc2C(=O)N(CC(C)C)C1c1cccs1 (centres undefined) |  | 926 | < 0 | 34.5 | 45 | 68.1 | 24
